According to US20070178147A1, “Liposomal compositions” (priority 2005, published 2007):
In brackets after ≈: the same amount, converted by molar mass.

How the values were obtained:
[1] = Solubility of Compound 1 in pharmaceutical solvents at 25° C.; format: physicochemical
From the text: Compound 1 is a nonpeptide vasopressin receptor antagonist and is insoluble in aqueous solutions throughout the physiological pH range (1.2 to 7.5).

[2] = Precipitation of Compound 1 from cosolvent systems upon addition of water; format: physicochemical; details: cosolvent systems of PEG 400 or 300, Benzyl Alcohol, Ethanol and low amounts of bile salts; water at 30% levels in final mixture
From the text: In additional combinations as cosolvent systems, of PEG 400 or 300, Benzyl Alcohol, Ethanol and low amounts of bile salts (e.g. Sodium Deoxytauro Cholate), Compound 1 precipitated upon an addition of water at 30% levels in the final aqueous-organic mixture.

solubility ([1]; aqueous buffer, 10 mM Phosphate buffer (pH 7.4), 25° C.): < 0.001 µg/mL
solubility ([1]; aqueous with cosolvent or surfactant or cyclodextrin, Aqueous solution of Poloxamer 188 (10, 20 and 30%), 25° C.): < 0.001 µg/mL
solubility ([1]; aqueous with cosolvent or surfactant or cyclodextrin, Cremophor EL, 25° C.): 5100 µg/mL (≈ 10800 µM)
solubility ([1]; aqueous with cosolvent or surfactant or cyclodextrin, Gelucire 48109, 25° C.): 2260 µg/mL (≈ 4770 µM)
solubility ([1]; aqueous with cosolvent or surfactant or cyclodextrin, Labrasol, 25° C.): 7500 µg/mL (≈ 15800 µM)
solubility ([1]; aqueous with cosolvent or surfactant or cyclodextrin, PEG 300/Alcohol/Water (40:30:30), 25° C.): 280 µg/mL (≈ 591 µM)
solubility ([1]; aqueous with cosolvent or surfactant or cyclodextrin, Sodium Lauryl sulfate, 25° C.): 20 µg/mL (≈ 42.2 µM)
solubility ([1]; fassgf or other biorelevant, SIF without enzyme, 25° C.): < 0.001 µg/mL
solubility ([1]; oil or lipid, Ethyl oleate, 25° C.): 200 µg/mL (≈ 422 µM)
solubility ([1]; oil or lipid, Miglyol 812, 25° C.): 290 µg/mL (≈ 612 µM)
solubility ([1]; oil or lipid, Neobee M5, 25° C.): 520 µg/mL (≈ 1100 µM)
solubility ([1]; oil or lipid, Oleic acid, 25° C.): 40 µg/mL (≈ 84.4 µM)
solubility ([1]; oil or lipid, Olive oil, 25° C.): 30 µg/mL (≈ 63.3 µM)
solubility ([1]; oil or lipid, Propylene glycol Laurate, 25° C.): 680 µg/mL (≈ 1430 µM)
solubility ([1]; oil or lipid, Safflower oil, 25° C.): < 0.001 µg/mL
solubility ([1]; oil or lipid, Soybean oil, 25° C.): < 0.001 µg/mL
solubility ([1]; organic solvent or mixture, Benzyl Alcohol, 25° C.): 21000 µg/mL (≈ 44400 µM)
solubility ([1]; organic solvent or mixture, Benzyl Benzoate, 25° C.): 3410 µg/mL (≈ 7200 µM)
solubility ([1]; organic solvent or mixture, Ethanol, 25° C.): 1890 µg/mL (≈ 3990 µM)
solubility ([1]; organic solvent or mixture, PEG 300, 25° C.): 14900 µg/mL (≈ 31400 µM)
solubility ([1]; organic solvent or mixture, PEG 300/Alcohol (50:50), 25° C.): 8750 µg/mL (≈ 18500 µM)
solubility ([1]; organic solvent or mixture, PEG 400, 25° C.): 26300 µg/mL (≈ 55500 µM)
solubility ([1]; organic solvent or mixture, PEG 400/Benzyl Alcohol (80:20), 25° C.): 14600 µg/mL (≈ 30800 µM)
solubility ([1]; organic solvent or mixture, Triacetin, 25° C.): 2700 µg/mL (≈ 5700 µM)
Solubility in partially aqueous solvents ([1]; partially aqueous solvents of pharmaceutically acceptable hydrophilic and lipophilic solvents): limited solubility
solubility ([1]; plasma or biological fluid, Human Serum Albumin, 25° C.): 16 µg/mL (≈ 33.8 µM)
solubility ([1]; propylene glycol (printed: Propylyne glycol), organic solvent or mixture, Propylyne glycol, 25° C.): 600 µg/mL (≈ 1270 µM)
solubility ([1]; simulated gastric fluid, SGF without enzyme, 25° C.): < 0.001 µg/mL
Solubility in aqueous solutions ([1]; throughout the physiological pH range (1.2 to 7.5)): insoluble
Behaviour upon addition of water [2]: precipitated
Structure (SMILES): Cc1ccc(F)cc1C(=O)Nc1ccc(C(=O)N2Cc3cccn3Cc3ccccc32)c(Cl)c1 [Compound 1, 5-fluoro-2-methyl-N-[4-(5H-pyrrolo[2,1-c][1,4]benzodiazepin-10(11H)-ylcarbonyl)-3-chlorophenyl]benzamide]
